These results are taken from US8309760B2, “Process for purification of aryl carboxylic acids” (University of Alabama, priority 2007, dated 2012).

For data set [1] the following is noted: cited from earlier work.
Data set [2] is classed as physicochemical. The method, then: Examples illustrating the dissolution and aqueous reconstitution of terephthalic acid from ionic liquids follow the same general experimental protocol. However, it should be noted that the ionic liquids chosen are by far non-limiting examples of terephthalic acid dissolution in ionic liquids. To a vial containing 100 mg of an ionic liquid is added 10 mg of terephthalic acid and the mixture is heated to 75° C. to reduce the viscosity of the resulting liquid. The solution is stirred on a hot plate in an oil bath for 24 hours, whereupon the solutions are visually checked for dissolution. Aqueous reconstitution of the terephthalic acid is achieved by the addition of 500 mL deionized water (polished to 18.1-18.3 MΩ cm). Crystalline terephthalic acid separates from the ionic liquid as a flock, washed with copious amounts of deionized water and vacuum filtered, then dried in ambient conditions and ground with a spatula to give the desired crystalline terephthalic acid.

Read-outs that look alike come from different tables or passages of the source.

On to `O=Cc1ccc(C(=O)O)cc1` [4-Carboxybenzaldehyde, 4-carboxybenzaldehyde], for which, in data set [1] (no temperature given), the solubility in water result is given as “soluble”.

With `O=C(O)c1ccc(C(=O)O)cc1` [terephthalic acid], the “solubility in various ionic liquids” value in data set [2] was “soluble”. Moreover, the “solubility of terephthalic acid in water” value in data set [1] (temperature of about 300° C.) is on record as “about 40%”. In addition, the solubility in water result in data set [1] (temperatures below about 200° C.) was “insoluble”.
